Source: ChEMBL document CHEMBL3885861, “Open TG-GATES”

Species: Rattus norvegicus
Assay: Open TG-GATES - Regimen: Single
Type: toxicity, organism-based, Sprague-Dawley
Parameters: regimen Single, gender Male, age 6 weeks
Conditions: in vivo, po, 0 mg/kg, route gavage, dose level Control; for APTT / Bas / Eos / Fbg / Hb / Ht / Lym / MCH / MCHC / MCV / Mono / Neu / PT / Plat / RBC / Ret / WBC: tissue Blood; for KIDNEY_L / KIDNEY_R / KIDNEY_TOTAL: tissue Kidney; for LIVER: tissue Liver; for A/G / ALP / ALT / AST / BUN / CRE / Ca / Cl / DBIL / GLC / IP / K / LDH / Na / PL / RALB / TBIL / TC / TG / TP / gamma-GTP: tissue Plasma

ClC(Cl)(Cl)Cl [CARBON TETRACHLORIDE]
TERMINAL_BW (3 h): 204.7 g
APTT (3 h): 16.7 s
Bas (3 h): 0%
Eos (3 h): 1%
Fbg (3 h): 245 mg/dL
Hb (3 h): 13 g/dL
Ht (3 h): 37.3%
Lym (3 h): 73.8%
MCH (3 h): 21.7 pg
MCHC (3 h): 34.8%
MCV (3 h): 62.3 fL
Mono (3 h): 3.6%
Neu (3 h): 21.6%
PT (3 h): 12 s
Plat (3 h): 132.6 x10_4/uL
RBC (3 h): 599 x10_4/ul
Ret (3 h): 8.6%
WBC (3 h): 103.4 x10_2/uL
KIDNEY_L (3 h): 0.9 g
KIDNEY_R (3 h): 0.9 g
KIDNEY_TOTAL (3 h): 1.8 g
LIVER (3 h): 10 g
A/G (3 h): 1.6
ALP (3 h): 947 IU/L
ALT (3 h): 37.2 IU/L
AST (3 h): 66.6 IU/L
BUN (3 h): 13.2 mg/dL
CRE (3 h): 0.4 mg/dL
Ca (3 h): 11 mg/dL
Cl (3 h): 104.2 meq/L
DBIL (3 h): 0.3 mg/dL
GLC (3 h): 207 mg/dL
IP (3 h): 9 mg/dL
K (3 h): 3.9 meq/L
LDH (3 h): 209 IU/L
Na (3 h): 139.6 meq/L
PL (3 h): 179.8 mg/dL
RALB (3 h): 3.4 g/dL
TBIL (3 h): 0.3 mg/dL
TC (3 h): 87.2 mg/dL
TG (3 h): 159.6 mg/dL
TP (3 h): 5.6 g/dL
gamma-GTP (3 h): 0.6 IU/L
TERMINAL_BW (6 h): 204.3 g
APTT (6 h): 17 s
Bas (6 h): 0%
Eos (6 h): 0.8%
Fbg (6 h): 230.8 mg/dL
Hb (6 h): 13 g/dL
Ht (6 h): 37.6%
Lym (6 h): 69%
MCH (6 h): 22 pg
MCHC (6 h): 34.6%
MCV (6 h): 63.4 fL
Mono (6 h): 3.4%
Neu (6 h): 26.6%
PT (6 h): 12.1 s
Plat (6 h): 140.4 x10_4/uL
RBC (6 h): 593.6 x10_4/ul
Ret (6 h): 8.9%
WBC (6 h): 98.9 x10_2/uL
KIDNEY_L (6 h): 0.9 g
KIDNEY_R (6 h): 0.9 g
KIDNEY_TOTAL (6 h): 1.8 g
LIVER (6 h): 9 g
A/G (6 h): 1.5
ALP (6 h): 1166.6 IU/L
ALT (6 h): 31.4 IU/L
AST (6 h): 62.8 IU/L
BUN (6 h): 9.6 mg/dL
CRE (6 h): 0.4 mg/dL
Ca (6 h): 10.7 mg/dL
Cl (6 h): 104 meq/L
DBIL (6 h): 0.094 mg/dL
GLC (6 h): 196.8 mg/dL
IP (6 h): 9.8 mg/dL
K (6 h): 4.1 meq/L
LDH (6 h): 189.2 IU/L
Na (6 h): 139.8 meq/L
PL (6 h): 161.4 mg/dL
RALB (6 h): 3.3 g/dL
TBIL (6 h): 0.2 mg/dL
TC (6 h): 89.4 mg/dL
TG (6 h): 61 mg/dL
TP (6 h): 5.4 g/dL
gamma-GTP (6 h): 1 IU/L
TERMINAL_BW (9 h): 201.8 g
APTT (9 h): 16.1 s
Bas (9 h): 0%
Eos (9 h): 0.8%
Fbg (9 h): 222.4 mg/dL
Hb (9 h): 12.6 g/dL
Ht (9 h): 36.6%
Lym (9 h): 76.6%
MCH (9 h): 22.2 pg
MCHC (9 h): 34.6%
MCV (9 h): 64.2 fL
Mono (9 h): 2.2%
Neu (9 h): 20%
PT (9 h): 12.2 s
Plat (9 h): 131.9 x10_4/uL
RBC (9 h): 570 x10_4/ul
Ret (9 h): 9.7%
WBC (9 h): 82.1 x10_2/uL
KIDNEY_L (9 h): 0.9 g
KIDNEY_R (9 h): 0.9 g
KIDNEY_TOTAL (9 h): 1.8 g
LIVER (9 h): 8.6 g
A/G (9 h): 1.4
ALP (9 h): 961.6 IU/L
ALT (9 h): 30 IU/L
AST (9 h): 62.6 IU/L
BUN (9 h): 11.2 mg/dL
CRE (9 h): 0.4 mg/dL
Ca (9 h): 10.3 mg/dL
Cl (9 h): 102.4 meq/L
DBIL (9 h): 0.066 mg/dL
GLC (9 h): 207.2 mg/dL
IP (9 h): 10.7 mg/dL
K (9 h): 3.7 meq/L
LDH (9 h): 163 IU/L
Na (9 h): 139.2 meq/L
PL (9 h): 129.8 mg/dL
RALB (9 h): 3.1 g/dL
TBIL (9 h): 0.1 mg/dL
TC (9 h): 69.8 mg/dL
TG (9 h): 35.6 mg/dL
TP (9 h): 5.4 g/dL
gamma-GTP (9 h): 1.2 IU/L
TERMINAL_BW (24 h): 215.9 g
APTT (24 h): 18.1 s
Bas (24 h): 0.2%
Eos (24 h): 1%
Fbg (24 h): 256.8 mg/dL
Hb (24 h): 13.7 g/dL
Ht (24 h): 38.8%
Lym (24 h): 82%
MCH (24 h): 22.5 pg
MCHC (24 h): 35.3%
MCV (24 h): 63.8 fL
Mono (24 h): 2.4%
Neu (24 h): 14.2%
PT (24 h): 11.8 s
Plat (24 h): 140.8 x10_4/uL
RBC (24 h): 607.2 x10_4/ul
Ret (24 h): 8%
WBC (24 h): 105.9 x10_2/uL
KIDNEY_L (24 h): 0.9 g
KIDNEY_R (24 h): 0.9 g
KIDNEY_TOTAL (24 h): 1.9 g
LIVER (24 h): 10.6 g
A/G (24 h): 1.6
ALP (24 h): 1231.6 IU/L
ALT (24 h): 37.2 IU/L
AST (24 h): 66.6 IU/L
BUN (24 h): 15 mg/dL
CRE (24 h): 0.4 mg/dL
Ca (24 h): 10.9 mg/dL
Cl (24 h): 103 meq/L
DBIL (24 h): 0.088 mg/dL
GLC (24 h): 202.2 mg/dL
IP (24 h): 7.4 mg/dL
K (24 h): 3.8 meq/L
LDH (24 h): 186.2 IU/L
Na (24 h): 140 meq/L
PL (24 h): 156.2 mg/dL
RALB (24 h): 3.5 g/dL
TBIL (24 h): 0.2 mg/dL
TC (24 h): 79.2 mg/dL
TG (24 h): 100 mg/dL
TP (24 h): 5.7 g/dL
gamma-GTP (24 h): 1.2 IU/L
